Measured values published in publication PMC5540273, “Progress towards a public chemogenomic set for protein kinases and a call for contributions” (PLoS ONE, 2017).

These compounds were tested against CDKL3 (Homo sapiens, UniProt Q8IVW4) (assay: KINOMEscan competition binding). Conditions: read-out: %Inh CDKL3.
Sequence of CDKL3 (Q8IVW4 whole entry): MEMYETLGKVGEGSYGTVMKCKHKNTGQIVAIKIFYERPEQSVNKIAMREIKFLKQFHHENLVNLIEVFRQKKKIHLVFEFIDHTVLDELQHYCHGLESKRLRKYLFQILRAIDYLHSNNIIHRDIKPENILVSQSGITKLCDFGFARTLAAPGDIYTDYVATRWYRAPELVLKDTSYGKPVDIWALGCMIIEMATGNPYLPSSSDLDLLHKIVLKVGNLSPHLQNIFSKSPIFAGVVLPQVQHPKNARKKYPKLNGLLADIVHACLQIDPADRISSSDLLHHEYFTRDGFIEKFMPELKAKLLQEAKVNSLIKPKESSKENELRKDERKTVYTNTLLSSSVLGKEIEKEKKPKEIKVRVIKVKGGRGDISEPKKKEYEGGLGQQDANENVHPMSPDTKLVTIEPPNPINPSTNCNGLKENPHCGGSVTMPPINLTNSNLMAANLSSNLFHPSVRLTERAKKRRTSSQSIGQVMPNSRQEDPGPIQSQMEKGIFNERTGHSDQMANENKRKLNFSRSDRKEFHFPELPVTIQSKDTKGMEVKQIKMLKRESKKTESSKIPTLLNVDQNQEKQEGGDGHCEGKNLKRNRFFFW
With O=c1cc(N2CCOCC2)nc2n(Cc3cccc(Cl)c3Cl)c(C3CC3)nn12 [UNC10225469A] the inhibition at 1 µM was 0%.
In the case of Cn1cc(-c2cnc(N)c3c(-c4ccc5c(c4)CCN5C(=O)Cc4ccccc4)csc23)cn1 [UNC10225012A], the inhibition at 1 µM is reported as 4%.
Work on CS(=O)(=O)Cc1ccc(Nc2nccc(-c3c(-c4cccc(NC(=O)C5CCCCC5)c4)nn4ncccc34)n2)cc1 [UNC10225159A] yielded an inhibition at 1 µM of 0%.
Compound COc1cccc(OC)c1C(=O)Nc1cccc(-c2nn3ccccc3c2-c2ccnc(Nc3cccc(F)c3)n2)c1 [UNC10225310A] has an inhibition at 1 µM of 3%.
Cc1ccc(NC(=O)Nc2cccc(C(F)(F)F)c2)cc1 [UNC10225187A] gave an inhibition at 1 µM of 4%.

These compounds were tested against JNK1 (Homo sapiens, UniProt P45983) (assay: KINOMEscan competition binding). Conditions: read-out: %Inh JNK1.
Sequence of JNK1 (P45983 whole entry): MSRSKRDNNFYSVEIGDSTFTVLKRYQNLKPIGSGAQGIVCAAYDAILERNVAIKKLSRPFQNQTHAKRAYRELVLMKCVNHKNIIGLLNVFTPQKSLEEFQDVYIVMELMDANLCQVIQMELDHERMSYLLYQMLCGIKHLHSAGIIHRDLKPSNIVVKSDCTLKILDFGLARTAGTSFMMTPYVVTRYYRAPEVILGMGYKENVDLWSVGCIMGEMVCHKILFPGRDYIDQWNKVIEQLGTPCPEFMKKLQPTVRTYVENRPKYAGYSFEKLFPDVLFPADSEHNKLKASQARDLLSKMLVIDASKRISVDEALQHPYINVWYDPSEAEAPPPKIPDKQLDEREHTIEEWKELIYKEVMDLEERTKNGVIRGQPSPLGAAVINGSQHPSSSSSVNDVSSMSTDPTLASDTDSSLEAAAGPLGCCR
Work on O=c1cc(N2CCOCC2)nc2n(Cc3cccc(Cl)c3Cl)c(C3CC3)nn12 [UNC10225469A] yielded an inhibition at 1 µM of 19%.
With Cn1cc(-c2cnc(N)c3c(-c4ccc5c(c4)CCN5C(=O)Cc4ccccc4)csc23)cn1 [UNC10225012A] the inhibition at 1 µM was 13%.
For CS(=O)(=O)Cc1ccc(Nc2nccc(-c3c(-c4cccc(NC(=O)C5CCCCC5)c4)nn4ncccc34)n2)cc1 [UNC10225159A], the inhibition at 1 µM was 43%.
In the case of COc1cccc(OC)c1C(=O)Nc1cccc(-c2nn3ccccc3c2-c2ccnc(Nc3cccc(F)c3)n2)c1 [UNC10225310A], the inhibition at 1 µM is reported as 44%.
Cc1ccc(NC(=O)Nc2cccc(C(F)(F)F)c2)cc1 [UNC10225187A] showed an inhibition at 1 µM of 58%.

These compounds were tested against T1, IRAK3 (Homo sapiens, UniProt Q9Y616) (assay: KINOMEscan competition binding). Conditions: read-out: %Inh IRAK3.
T1 sequence (Q9Y616 1-596): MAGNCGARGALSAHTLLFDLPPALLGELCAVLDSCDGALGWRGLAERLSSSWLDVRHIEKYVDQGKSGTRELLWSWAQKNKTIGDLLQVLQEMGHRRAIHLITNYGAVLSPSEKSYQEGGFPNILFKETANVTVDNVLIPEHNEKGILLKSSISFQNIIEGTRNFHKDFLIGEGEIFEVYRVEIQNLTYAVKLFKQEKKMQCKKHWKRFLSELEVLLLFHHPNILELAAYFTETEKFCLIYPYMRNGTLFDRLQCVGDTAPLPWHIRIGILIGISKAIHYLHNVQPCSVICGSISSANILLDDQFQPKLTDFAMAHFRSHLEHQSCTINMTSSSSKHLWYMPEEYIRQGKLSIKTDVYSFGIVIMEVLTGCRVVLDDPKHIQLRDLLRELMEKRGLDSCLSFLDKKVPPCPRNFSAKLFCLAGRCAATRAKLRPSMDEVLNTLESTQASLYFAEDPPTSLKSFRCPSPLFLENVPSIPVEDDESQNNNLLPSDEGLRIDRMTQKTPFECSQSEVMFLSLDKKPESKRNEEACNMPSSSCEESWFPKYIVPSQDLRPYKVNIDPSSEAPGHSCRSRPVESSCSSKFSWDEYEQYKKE
Work on O=c1cc(N2CCOCC2)nc2n(Cc3cccc(Cl)c3Cl)c(C3CC3)nn12 [UNC10225469A] yielded an inhibition at 1 µM of 0%.
Cn1cc(-c2cnc(N)c3c(-c4ccc5c(c4)CCN5C(=O)Cc4ccccc4)csc23)cn1 [UNC10225012A] gave an inhibition at 1 µM of 5%.
For CS(=O)(=O)Cc1ccc(Nc2nccc(-c3c(-c4cccc(NC(=O)C5CCCCC5)c4)nn4ncccc34)n2)cc1 [UNC10225159A], the inhibition at 1 µM was 3%.
Compound COc1cccc(OC)c1C(=O)Nc1cccc(-c2nn3ccccc3c2-c2ccnc(Nc3cccc(F)c3)n2)c1 [UNC10225310A] has an inhibition at 1 µM of 0%.
Cc1ccc(NC(=O)Nc2cccc(C(F)(F)F)c2)cc1 [UNC10225187A] gave an inhibition at 1 µM of 100%.

Each compound was assayed against T2, DRAK2 (Homo sapiens, UniProt O94768) (assay: KINOMEscan competition binding). Conditions: read-out: %Inh DRAK2.
T2 sequence (O94768 1-372): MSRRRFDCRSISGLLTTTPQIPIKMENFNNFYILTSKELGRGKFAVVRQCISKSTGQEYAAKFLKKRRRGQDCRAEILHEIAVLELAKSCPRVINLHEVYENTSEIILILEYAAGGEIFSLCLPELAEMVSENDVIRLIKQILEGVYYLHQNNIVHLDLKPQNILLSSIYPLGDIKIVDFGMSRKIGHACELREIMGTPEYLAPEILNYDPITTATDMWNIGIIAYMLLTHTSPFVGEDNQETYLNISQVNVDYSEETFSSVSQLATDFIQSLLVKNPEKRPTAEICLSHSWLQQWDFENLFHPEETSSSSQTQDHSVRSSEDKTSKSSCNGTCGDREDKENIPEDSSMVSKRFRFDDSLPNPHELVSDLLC
In the case of O=c1cc(N2CCOCC2)nc2n(Cc3cccc(Cl)c3Cl)c(C3CC3)nn12 [UNC10225469A], the inhibition at 1 µM is reported as 9%.
Cn1cc(-c2cnc(N)c3c(-c4ccc5c(c4)CCN5C(=O)Cc4ccccc4)csc23)cn1 [UNC10225012A] gave an inhibition at 1 µM of 9%.
CS(=O)(=O)Cc1ccc(Nc2nccc(-c3c(-c4cccc(NC(=O)C5CCCCC5)c4)nn4ncccc34)n2)cc1 [UNC10225159A] was tested, and the inhibition at 1 µM was 0%.
COc1cccc(OC)c1C(=O)Nc1cccc(-c2nn3ccccc3c2-c2ccnc(Nc3cccc(F)c3)n2)c1 [UNC10225310A] showed an inhibition at 1 µM of 12%.
Compound Cc1ccc(NC(=O)Nc2cccc(C(F)(F)F)c2)cc1 [UNC10225187A] has an inhibition at 1 µM of 0%.

Each compound was assayed against FGFR4 (Homo sapiens, UniProt P22455) (assay: KINOMEscan competition binding). Conditions: read-out: %Inh FGFR4.
Sequence of FGFR4 (P22455 22-802): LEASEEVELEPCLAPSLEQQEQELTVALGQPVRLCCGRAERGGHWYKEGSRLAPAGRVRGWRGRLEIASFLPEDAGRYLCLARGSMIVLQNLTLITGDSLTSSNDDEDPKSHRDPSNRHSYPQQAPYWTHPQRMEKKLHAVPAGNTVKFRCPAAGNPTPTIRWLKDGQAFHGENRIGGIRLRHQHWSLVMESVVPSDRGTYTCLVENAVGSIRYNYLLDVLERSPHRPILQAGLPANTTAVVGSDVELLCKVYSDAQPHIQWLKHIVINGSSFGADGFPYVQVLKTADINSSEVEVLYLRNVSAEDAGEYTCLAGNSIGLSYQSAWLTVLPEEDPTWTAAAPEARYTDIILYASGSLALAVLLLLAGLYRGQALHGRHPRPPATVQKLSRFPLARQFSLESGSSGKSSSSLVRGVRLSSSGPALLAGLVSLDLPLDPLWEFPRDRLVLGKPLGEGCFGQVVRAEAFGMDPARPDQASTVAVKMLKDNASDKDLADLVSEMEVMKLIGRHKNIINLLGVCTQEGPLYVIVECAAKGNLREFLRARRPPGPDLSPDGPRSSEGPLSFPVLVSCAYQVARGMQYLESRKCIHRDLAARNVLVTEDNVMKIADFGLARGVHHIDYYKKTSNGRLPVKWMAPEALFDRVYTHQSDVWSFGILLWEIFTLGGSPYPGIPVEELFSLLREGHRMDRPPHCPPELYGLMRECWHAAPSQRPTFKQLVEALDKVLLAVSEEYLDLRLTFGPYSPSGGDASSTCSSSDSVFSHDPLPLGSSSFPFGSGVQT
Work on O=c1cc(N2CCOCC2)nc2n(Cc3cccc(Cl)c3Cl)c(C3CC3)nn12 [UNC10225469A] yielded an inhibition at 1 µM of 0%.
Work on Cn1cc(-c2cnc(N)c3c(-c4ccc5c(c4)CCN5C(=O)Cc4ccccc4)csc23)cn1 [UNC10225012A] yielded an inhibition at 1 µM of 0%.
For CS(=O)(=O)Cc1ccc(Nc2nccc(-c3c(-c4cccc(NC(=O)C5CCCCC5)c4)nn4ncccc34)n2)cc1 [UNC10225159A], the inhibition at 1 µM was 6%.
COc1cccc(OC)c1C(=O)Nc1cccc(-c2nn3ccccc3c2-c2ccnc(Nc3cccc(F)c3)n2)c1 [UNC10225310A] showed an inhibition at 1 µM of 0%.
Work on Cc1ccc(NC(=O)Nc2cccc(C(F)(F)F)c2)cc1 [UNC10225187A] yielded an inhibition at 1 µM of 0%.

What follows are compounds tested against ERBB4 (Homo sapiens, UniProt Q15303) (assay: KINOMEscan competition binding). Conditions: read-out: %Inh ERBB4.
Sequence of ERBB4 (Q15303 26-1308): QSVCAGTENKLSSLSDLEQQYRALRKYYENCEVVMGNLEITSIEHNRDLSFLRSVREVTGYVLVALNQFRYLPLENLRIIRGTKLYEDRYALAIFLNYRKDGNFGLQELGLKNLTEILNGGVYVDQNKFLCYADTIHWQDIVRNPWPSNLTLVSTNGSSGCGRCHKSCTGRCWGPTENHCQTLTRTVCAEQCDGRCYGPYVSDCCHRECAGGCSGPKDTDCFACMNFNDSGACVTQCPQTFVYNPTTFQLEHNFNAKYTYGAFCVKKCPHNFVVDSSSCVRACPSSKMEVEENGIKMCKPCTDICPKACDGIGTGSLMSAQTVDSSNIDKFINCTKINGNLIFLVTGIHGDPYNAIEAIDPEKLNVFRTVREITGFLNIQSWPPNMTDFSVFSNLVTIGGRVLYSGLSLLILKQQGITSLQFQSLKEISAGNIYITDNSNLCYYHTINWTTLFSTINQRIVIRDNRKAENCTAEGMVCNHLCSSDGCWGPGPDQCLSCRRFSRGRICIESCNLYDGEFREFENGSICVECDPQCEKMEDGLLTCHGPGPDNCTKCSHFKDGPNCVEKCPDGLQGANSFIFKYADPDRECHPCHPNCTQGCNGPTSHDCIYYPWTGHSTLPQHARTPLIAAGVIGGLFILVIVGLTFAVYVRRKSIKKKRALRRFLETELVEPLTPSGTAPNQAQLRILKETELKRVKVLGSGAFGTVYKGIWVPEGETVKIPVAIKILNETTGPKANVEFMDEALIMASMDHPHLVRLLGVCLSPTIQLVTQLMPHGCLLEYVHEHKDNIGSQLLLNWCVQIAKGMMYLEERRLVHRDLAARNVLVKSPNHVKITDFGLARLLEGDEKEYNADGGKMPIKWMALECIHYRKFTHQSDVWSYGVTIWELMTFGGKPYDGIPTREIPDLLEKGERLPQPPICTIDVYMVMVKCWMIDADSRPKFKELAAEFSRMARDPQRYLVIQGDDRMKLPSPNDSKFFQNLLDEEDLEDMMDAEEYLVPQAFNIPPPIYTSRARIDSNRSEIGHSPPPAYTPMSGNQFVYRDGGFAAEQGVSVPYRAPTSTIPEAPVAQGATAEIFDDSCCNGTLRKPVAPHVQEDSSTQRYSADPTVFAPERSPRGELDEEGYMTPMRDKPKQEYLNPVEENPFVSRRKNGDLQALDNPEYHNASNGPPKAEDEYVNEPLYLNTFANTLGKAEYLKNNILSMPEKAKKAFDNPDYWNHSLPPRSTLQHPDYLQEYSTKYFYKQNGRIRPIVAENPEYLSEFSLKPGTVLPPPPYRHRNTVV
O=c1cc(N2CCOCC2)nc2n(Cc3cccc(Cl)c3Cl)c(C3CC3)nn12 [UNC10225469A] showed an inhibition at 1 µM of 0%.
Cn1cc(-c2cnc(N)c3c(-c4ccc5c(c4)CCN5C(=O)Cc4ccccc4)csc23)cn1 [UNC10225012A] gave an inhibition at 1 µM of 0%.
Work on CS(=O)(=O)Cc1ccc(Nc2nccc(-c3c(-c4cccc(NC(=O)C5CCCCC5)c4)nn4ncccc34)n2)cc1 [UNC10225159A] yielded an inhibition at 1 µM of 74%.
For COc1cccc(OC)c1C(=O)Nc1cccc(-c2nn3ccccc3c2-c2ccnc(Nc3cccc(F)c3)n2)c1 [UNC10225310A], the inhibition at 1 µM was 84%.
In the case of Cc1ccc(NC(=O)Nc2cccc(C(F)(F)F)c2)cc1 [UNC10225187A], the inhibition at 1 µM is reported as 0%.

What follows are compounds tested against ABL1-nonphosphorylated (Homo sapiens, UniProt P00519) (assay: KINOMEscan competition binding). Conditions: read-out: %Inh ABL1-nonphosphorylated.
Sequence of ABL1-nonphosphorylated (P00519 whole entry): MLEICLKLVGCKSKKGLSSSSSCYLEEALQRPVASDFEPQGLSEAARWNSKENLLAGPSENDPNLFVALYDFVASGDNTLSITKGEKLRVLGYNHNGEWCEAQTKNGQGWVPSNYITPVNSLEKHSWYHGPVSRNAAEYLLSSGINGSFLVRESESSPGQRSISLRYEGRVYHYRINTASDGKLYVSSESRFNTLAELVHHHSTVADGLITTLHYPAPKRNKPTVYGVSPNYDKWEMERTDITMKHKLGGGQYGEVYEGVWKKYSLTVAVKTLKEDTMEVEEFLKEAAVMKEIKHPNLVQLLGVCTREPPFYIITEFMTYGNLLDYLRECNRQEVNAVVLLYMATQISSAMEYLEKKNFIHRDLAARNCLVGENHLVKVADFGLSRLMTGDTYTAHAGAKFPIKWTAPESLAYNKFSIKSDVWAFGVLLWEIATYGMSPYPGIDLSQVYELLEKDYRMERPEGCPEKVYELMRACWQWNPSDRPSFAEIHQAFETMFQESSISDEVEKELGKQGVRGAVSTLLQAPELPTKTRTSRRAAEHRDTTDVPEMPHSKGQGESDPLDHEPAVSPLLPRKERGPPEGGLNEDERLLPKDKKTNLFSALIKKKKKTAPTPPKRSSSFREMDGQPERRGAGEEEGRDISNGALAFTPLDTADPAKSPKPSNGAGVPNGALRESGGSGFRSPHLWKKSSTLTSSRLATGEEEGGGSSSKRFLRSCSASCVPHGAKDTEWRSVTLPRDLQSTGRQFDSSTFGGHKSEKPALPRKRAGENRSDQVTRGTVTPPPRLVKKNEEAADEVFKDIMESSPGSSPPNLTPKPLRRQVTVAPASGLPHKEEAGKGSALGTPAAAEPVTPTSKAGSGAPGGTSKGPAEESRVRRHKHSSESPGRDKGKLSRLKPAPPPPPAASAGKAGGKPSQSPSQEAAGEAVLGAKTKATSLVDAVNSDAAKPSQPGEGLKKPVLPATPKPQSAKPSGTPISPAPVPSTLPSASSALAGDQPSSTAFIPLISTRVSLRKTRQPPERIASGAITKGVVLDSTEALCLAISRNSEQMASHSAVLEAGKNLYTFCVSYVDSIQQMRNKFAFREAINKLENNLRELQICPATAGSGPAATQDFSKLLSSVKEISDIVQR
In the case of O=c1cc(N2CCOCC2)nc2n(Cc3cccc(Cl)c3Cl)c(C3CC3)nn12 [UNC10225469A], the inhibition at 1 µM is reported as 28%.
With Cn1cc(-c2cnc(N)c3c(-c4ccc5c(c4)CCN5C(=O)Cc4ccccc4)csc23)cn1 [UNC10225012A] the inhibition at 1 µM was 99.7%.
CS(=O)(=O)Cc1ccc(Nc2nccc(-c3c(-c4cccc(NC(=O)C5CCCCC5)c4)nn4ncccc34)n2)cc1 [UNC10225159A] showed an inhibition at 1 µM of 8%.
COc1cccc(OC)c1C(=O)Nc1cccc(-c2nn3ccccc3c2-c2ccnc(Nc3cccc(F)c3)n2)c1 [UNC10225310A] showed an inhibition at 1 µM of 28%.
Work on Cc1ccc(NC(=O)Nc2cccc(C(F)(F)F)c2)cc1 [UNC10225187A] yielded an inhibition at 1 µM of 49%.

Each compound was assayed against T3, LKB1 (Homo sapiens, UniProt Q15831) (assay: KINOMEscan competition binding). Conditions: read-out: %Inh LKB1.
T3 sequence (Q15831 1-433): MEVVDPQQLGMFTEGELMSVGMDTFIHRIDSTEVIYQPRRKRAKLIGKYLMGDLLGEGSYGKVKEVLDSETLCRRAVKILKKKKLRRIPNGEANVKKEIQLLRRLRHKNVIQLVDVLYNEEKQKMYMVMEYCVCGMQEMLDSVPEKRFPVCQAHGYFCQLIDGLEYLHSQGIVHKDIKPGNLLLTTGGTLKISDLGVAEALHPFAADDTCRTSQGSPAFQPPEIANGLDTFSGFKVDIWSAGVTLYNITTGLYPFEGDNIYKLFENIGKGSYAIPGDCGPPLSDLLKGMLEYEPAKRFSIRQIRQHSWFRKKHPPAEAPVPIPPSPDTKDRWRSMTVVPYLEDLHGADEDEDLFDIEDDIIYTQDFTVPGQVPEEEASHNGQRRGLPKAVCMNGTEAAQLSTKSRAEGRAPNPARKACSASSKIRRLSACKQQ
O=c1cc(N2CCOCC2)nc2n(Cc3cccc(Cl)c3Cl)c(C3CC3)nn12 [UNC10225469A] showed an inhibition at 1 µM of 15%.
Cn1cc(-c2cnc(N)c3c(-c4ccc5c(c4)CCN5C(=O)Cc4ccccc4)csc23)cn1 [UNC10225012A] gave an inhibition at 1 µM of 0%.
Work on CS(=O)(=O)Cc1ccc(Nc2nccc(-c3c(-c4cccc(NC(=O)C5CCCCC5)c4)nn4ncccc34)n2)cc1 [UNC10225159A] yielded an inhibition at 1 µM of 0%.
Compound COc1cccc(OC)c1C(=O)Nc1cccc(-c2nn3ccccc3c2-c2ccnc(Nc3cccc(F)c3)n2)c1 [UNC10225310A] has an inhibition at 1 µM of 6%.
Work on Cc1ccc(NC(=O)Nc2cccc(C(F)(F)F)c2)cc1 [UNC10225187A] yielded an inhibition at 1 µM of 16%.

These compounds were tested against T4, DYRK2 (Homo sapiens, UniProt Q92630) (assay: KINOMEscan competition binding). Conditions: read-out: %Inh DYRK2.
T4 sequence (Q92630 1-601): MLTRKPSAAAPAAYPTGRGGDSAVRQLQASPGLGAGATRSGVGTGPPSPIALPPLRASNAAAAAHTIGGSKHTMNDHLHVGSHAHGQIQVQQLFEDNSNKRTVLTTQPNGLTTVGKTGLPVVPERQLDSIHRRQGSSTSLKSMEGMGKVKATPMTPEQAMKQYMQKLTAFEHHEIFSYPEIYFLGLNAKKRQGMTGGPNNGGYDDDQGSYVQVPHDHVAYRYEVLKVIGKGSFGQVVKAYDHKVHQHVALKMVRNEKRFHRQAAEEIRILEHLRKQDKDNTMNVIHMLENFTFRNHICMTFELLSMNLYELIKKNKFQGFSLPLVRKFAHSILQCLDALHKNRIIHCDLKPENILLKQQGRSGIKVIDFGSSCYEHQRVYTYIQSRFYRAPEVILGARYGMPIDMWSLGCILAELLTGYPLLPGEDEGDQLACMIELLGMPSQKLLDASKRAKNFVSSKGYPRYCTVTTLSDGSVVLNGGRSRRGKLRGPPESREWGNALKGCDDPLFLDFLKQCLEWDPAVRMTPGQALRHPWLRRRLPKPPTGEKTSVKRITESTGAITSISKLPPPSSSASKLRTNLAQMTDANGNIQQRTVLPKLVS
In the case of O=c1cc(N2CCOCC2)nc2n(Cc3cccc(Cl)c3Cl)c(C3CC3)nn12 [UNC10225469A], the inhibition at 1 µM is reported as 1%.
Work on Cn1cc(-c2cnc(N)c3c(-c4ccc5c(c4)CCN5C(=O)Cc4ccccc4)csc23)cn1 [UNC10225012A] yielded an inhibition at 1 µM of 8%.
Work on CS(=O)(=O)Cc1ccc(Nc2nccc(-c3c(-c4cccc(NC(=O)C5CCCCC5)c4)nn4ncccc34)n2)cc1 [UNC10225159A] yielded an inhibition at 1 µM of 5%.
With COc1cccc(OC)c1C(=O)Nc1cccc(-c2nn3ccccc3c2-c2ccnc(Nc3cccc(F)c3)n2)c1 [UNC10225310A] the inhibition at 1 µM was 0%.
For Cc1ccc(NC(=O)Nc2cccc(C(F)(F)F)c2)cc1 [UNC10225187A], the inhibition at 1 µM was 0%.
